Among the test systems are K-562 leukemia; NCI-H226 lung; SNB-19 CNS; T-47D breast; A549 NSCLC; HL-60(TB) leukemia; HT29 colon; TK-10 renal; MCF7 breast; COLO 205 colon; HOP-62 NSCLC; HS 578T breast; CCRF-CEM leukemia; SK-MEL-28 melanoma; NCI-H522 lung.
What all share (assay): NCI tumour cell line growth inhibition, 48 h

Several values for one entry are separate records, joined by “and”; a condition that tells them apart may be missing. Identical values can stand only once.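 Values below derive from 48-hour exposures of cells grown in 96-well plates, with endpoints linearly interpolated between the two concentrations bracketing the appropriate inhibition level. GI50 marks 50% less growth. TGI marks complete inhibition of growth.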 Some results are limits rather than exact numbers.

For the molecule `O=[N+]([O-])c1ccc2c(c1)N([O-])C1(CCCCC1)[N+]2=O`, the TGI in the assay with K-562 leukemia was over 100 µM; in the assay with NCI-H226 lung, 37.4 µM; in the assay on SNB-19 CNS it was over 100 µM; in the assay with T-47D breast, 64.7 µM; in the assay with A549 NSCLC, 37 µM; with HL-60(TB) leukemia, over 100 µM. For the same molecule, the TGI in the assay with HT29 colon turned out to be 43.3 µM; in the assay with TK-10 renal, 26.2 µM; with MCF7 breast, 36.6 µM; in the assay on COLO 205 colon it was 27.1 µM; in the assay with HOP-62 NSCLC, 31 µM; with HS 578T breast, 47.9 µM. Besides, the TGI in the assay with CCRF-CEM leukemia is over 100 µM; in the assay on SK-MEL-28 melanoma, 34.5 µM.

Turning to `Cc1cc2/c(=C\c3ccc(N(C)C)cc3)c3ccccc3n2[n+]1C`, the TGI with K-562 leukemia stood at 21.4 µM; in the assay with NCI-H226 lung, 5.87 µM; in the assay on SNB-19 CNS it was 4.52 µM; in the assay with T-47D breast it was 3.76 µM; with NCI-H522 lung it was 1.99 µM; in the assay with HL-60(TB) leukemia, 6.44 µM. Also, the TGI stood at 9.03 µM in the assay on HT29 colon; 6.04 µM in the assay with TK-10 renal; 6.55 µM in the assay on MCF7 breast; 0.354 µM with COLO 205 colon; 8.45 µM with HOP-62 NSCLC; 8.95 µM with HS 578T breast. The TGI was over 100 µM in the assay with CCRF-CEM leukemia and 3.19 µM in the assay on SK-MEL-28 melanoma.

For `Cc1nc(C)c(N2CCN(S(=O)(=O)N(Cc3ccccc3)Cc3ccccc3)CC2)c(=O)[nH]1`, the TGI is over 100 µM with K-562 leukemia; 27.6 µM in the assay with SNB-19 CNS; over 85.7 µM in the assay on T-47D breast; 65.1 µM in the assay on NCI-H522 lung; over 100 µM in the assay on A549 NSCLC; over 100 µM with HL-60(TB) leukemia. Also, the TGI in the assay with HT29 colon is over 100 µM; in the assay on TK-10 renal, over 72.9 µM; in the assay with MCF7 breast, over 100 µM; with COLO 205 colon, over 100 µM; in the assay with HOP-62 NSCLC, 37.9 µM; in the assay with HS 578T breast, 38.8 µM. For the same molecule, the TGI with CCRF-CEM leukemia and in the assay with SK-MEL-28 melanoma was over 100 µM throughout.

`c1ccc2c(c1)c1c(n2CCOCCN2CCCC2)CCCC1`: the TGI is 31.5 µM with K-562 leukemia; 49.5 µM with NCI-H226 lung; 61.9 µM with T-47D breast; over 100 µM with A549 NSCLC; 30.4 µM in the assay with HL-60(TB) leukemia; 47.5 µM in the assay on HT29 colon. Moreover, the TGI amounted to 37 µM in the assay on TK-10 renal; 31.3 µM in the assay on MCF7 breast; 38.2 µM with COLO 205 colon; 28.9 µM with HOP-62 NSCLC; 45.3 µM with HS 578T breast; 51 µM in the assay with CCRF-CEM leukemia. The same molecule showed a TGI in the assay on SK-MEL-28 melanoma of 29.4 µM.

For the molecule `O=C(OC1C2OC(=O)c3cc(O)c(O)c(O)c3Oc3cc4c(c(O)c3O)-c3c(cc(O)c(O)c3O)C(=O)OCC3OC(O)C(OC(=O)c5cc(O)c(O)c(O)c5Oc5cc6c(c(O)c5O)-c5c(cc(O)c(O)c5O)C(=O)OC1C(COC6=O)OC2O)C(OC(=O)c1cc(O)c(O)c(O)c1)C3OC4=O)c1cc(O)c(O)c(O)c1` (configuration not stated), the TGI is 42.8 µM in the assay with K-562 leukemia; over 100 µM in the assay with NCI-H226 lung; 51.6 µM in the assay on SNB-19 CNS; over 100 µM with T-47D breast; 39.7 µM in the assay with A549 NSCLC; 44.4 µM in the assay on HL-60(TB) leukemia. In addition, the TGI is 51.6 µM with HT29 colon; over 100 µM in the assay on TK-10 renal; over 100 µM in the assay on MCF7 breast; 54 µM in the assay on COLO 205 colon; 54.3 µM with HOP-62 NSCLC; 63.8 µM with HS 578T breast. For the same molecule, the TGI with CCRF-CEM leukemia and in the assay with SK-MEL-28 melanoma was over 100 µM in each case.

For the molecule `CN(Cc1cnc2nc(N)nc(N)c2n1)c1ccc(C(=O)N[C@@H](CCC(=O)O)C(=O)O)cc1`, the TGI was 206 µM and > 250 µM with K-562 leukemia; 242 µM and > 250 µM with NCI-H226 lung; 211 µM and > 250 µM in the assay on SNB-19 CNS; over 250 µM in the assay with T-47D breast; 155 µM and > 250 µM with NCI-H522 lung; over 250 µM in the assay on A549 NSCLC. In addition, the TGI with HL-60(TB) leukemia was 178 µM; in the assay with HT29 colon, 240 µM and > 250 µM; with TK-10 renal it was 230 µM and > 250 µM; in the assay with MCF7 breast, over 250 µM; with COLO 205 colon, 249 µM and > 250 µM; in the assay with HS 578T breast, over 250 µM. This molecule registered a TGI in the assay on SK-MEL-28 melanoma of over 250 µM. Also, the values for the GI50 with HL-60(TB) leukemia and with SK-MEL-28 melanoma were 0.0259 µM and 3.27 µM, respectively.

`CCCC(CCC(N)=O)(CCC(N)=O)[N+](=O)[O-]`: the TGI with K-562 leukemia, with NCI-H226 lung, in the assay with SNB-19 CNS, in the assay with T-47D breast, with NCI-H522 lung and in the assay on A549 NSCLC was over 100 µM in each case. Moreover, the TGI in the assay on HL-60(TB) leukemia, in the assay with HT29 colon, in the assay with TK-10 renal, in the assay on MCF7 breast, in the assay with COLO 205 colon and in the assay on HS 578T breast was over 100 µM throughout. In the assay on CCRF-CEM leukemia, the TGI is over 100 µM.

In the case of `Cc1ccc(NC=O)c(-c2c(N)[nH]c(=S)[nH]c2=O)c1`, the TGI with K-562 leukemia, in the assay on NCI-H226 lung, with SNB-19 CNS, with T-47D breast, with NCI-H522 lung and in the assay on A549 NSCLC was over 100 µM in each case. Besides, the TGI with HL-60(TB) leukemia, in the assay on HT29 colon, in the assay on TK-10 renal, in the assay with MCF7 breast, in the assay on COLO 205 colon and in the assay on HOP-62 NSCLC was over 100 µM each time. In addition, the TGI in the assay on HS 578T breast and in the assay with CCRF-CEM leukemia was over 100 µM each time.

Consider `O=C(O)CCC(=O)c1ccc2c(c1)C(C(=O)O)CC2` (configuration not stated), for which the TGI in the assay with K-562 leukemia, with NCI-H226 lung, in the assay on SNB-19 CNS, in the assay on T-47D breast, in the assay on NCI-H522 lung and with A549 NSCLC was over 100 µM each time. The TGI in the assay with HL-60(TB) leukemia, in the assay with HT29 colon, with TK-10 renal, with MCF7 breast, in the assay with COLO 205 colon and with HOP-62 NSCLC was over 100 µM each time. Besides, the TGI in the assay on HS 578T breast and in the assay on SK-MEL-28 melanoma was over 100 µM each time.

Regarding `COC(=O)c1ccc(/C=C2\Oc3ccccc3C2=O)cc1`, the TGI is over 100 µM in the assay with NCI-H226 lung; over 100 µM in the assay on SNB-19 CNS; over 100 µM in the assay on T-47D breast; over 100 µM in the assay on NCI-H522 lung; over 100 µM in the assay on A549 NSCLC; 54.4 µM with HL-60(TB) leukemia. For the same molecule, the TGI in the assay with HT29 colon, in the assay on TK-10 renal, in the assay with MCF7 breast, with COLO 205 colon, in the assay with HOP-62 NSCLC and with HS 578T breast was over 100 µM throughout. The TGI with CCRF-CEM leukemia and with SK-MEL-28 melanoma was over 100 µM each time.

As to `Cc1ccc(SC2C(=O)C3CC(OCc4ccccc4)C2(C)C3(C)C)cc1` (configuration not stated), the TGI with K-562 leukemia, with NCI-H226 lung, in the assay on SNB-19 CNS, with T-47D breast, with A549 NSCLC and in the assay with HL-60(TB) leukemia was over 100 µM in each case. Further, the TGI in the assay with HT29 colon, with TK-10 renal, with MCF7 breast, in the assay on HOP-62 NSCLC, with HS 578T breast and in the assay on CCRF-CEM leukemia was over 100 µM each time. Besides, in the assay on SK-MEL-28 melanoma, the TGI was over 100 µM.

With `Cc1ccccc1OC(C)C(=O)NN1C(=O)CSC1c1ccc(Cl)cc1` (configuration not stated), the TGI in the assay on K-562 leukemia was over 77.1 µM; in the assay with NCI-H226 lung, over 82.6 µM; in the assay with SNB-19 CNS, over 100 µM; with T-47D breast it was over 100 µM; with NCI-H522 lung, over 29.4 µM; in the assay on A549 NSCLC it was over 100 µM. The TGI in the assay on HL-60(TB) leukemia was 47.5 µM; with HT29 colon, 38.6 µM; in the assay with TK-10 renal it was over 100 µM; in the assay on MCF7 breast it was over 100 µM; in the assay with COLO 205 colon it was over 100 µM; with HOP-62 NSCLC it was 51.2 µM. The TGI in the assay on HS 578T breast and in the assay with SK-MEL-28 melanoma was over 100 µM each time.

For the molecule `CC(C)(C)OC(=O)NC1CC2(C=C(Br)C(=O)C(Br)=C2)OC1=O` (configuration not stated), the TGI in the assay on K-562 leukemia stood at 13.5 µM; in the assay with NCI-H226 lung it was 40.6 µM; in the assay on SNB-19 CNS, 38.6 µM; with T-47D breast it was 6.39 µM; in the assay with NCI-H522 lung, 3.92 µM; with A549 NSCLC it was 38.7 µM. Further, the TGI in the assay on HL-60(TB) leukemia turned out to be 7.65 µM; in the assay on HT29 colon it was 18.6 µM; with TK-10 renal, 12.2 µM; in the assay on MCF7 breast, 31.6 µM; with COLO 205 colon, 13.4 µM; in the assay with HOP-62 NSCLC, 36.8 µM. The figures for the TGI in the assay on HS 578T breast and in the assay on SK-MEL-28 melanoma were 51.3 µM and 37.9 µM, respectively.

In the case of `CCCCCCCCCCCCCCCCNC(=O)C(=O)/C=C(\O)c1ccc(C)cc1`, the TGI with K-562 leukemia, in the assay on NCI-H226 lung, with T-47D breast, in the assay on NCI-H522 lung, in the assay with HL-60(TB) leukemia and in the assay on HT29 colon was over 10 µM in each case. Further, the TGI with TK-10 renal, in the assay with MCF7 breast, with COLO 205 colon, in the assay on HOP-62 NSCLC, in the assay on HS 578T breast and with CCRF-CEM leukemia was over 10 µM in each case. Besides, the TGI in the assay on SK-MEL-28 melanoma was over 10 µM.

As for `[N-]=[N+]=NC1OC(=O)C(Cl)=C1N=P(c1ccccc1)(c1ccccc1)c1ccccc1` (configuration not stated), the TGI in the assay on K-562 leukemia, with NCI-H226 lung, in the assay with SNB-19 CNS, in the assay with T-47D breast, in the assay with NCI-H522 lung and in the assay with A549 NSCLC was over 10 µM throughout. Further, the TGI in the assay with HL-60(TB) leukemia, in the assay with TK-10 renal, with MCF7 breast, in the assay with COLO 205 colon, with HOP-62 NSCLC and in the assay with HS 578T breast was over 10 µM in each case. The TGI in the assay with CCRF-CEM leukemia and in the assay on SK-MEL-28 melanoma was over 10 µM throughout.
